Measured values from patent publication US20060110401A1, “Mixture of peptides from c and ns3 proteins of the hepatitis c virus and applications thereof” (priority 2002, published 2006).
Where two headings read alike, the source gives them in different places. Marks after values point to notes of the source that are not given here. Residues, ends and D or L forms follow the SMILES beside them.

Legend:
[1] = test system: T lymphocytes derived from PBMCs from patients chronically infected with HCV; assay type: cell-based, human
DR1 = assay: DR1
DR15 = assay: DR15
DP401 = assay: DP401
DP402 = assay: DP402
HLA-DR1 (DRB1*0101) = target: T1, HLA-DR1 (DRB1*0101) (Homo sapiens, UniProt P01903+P01911, A100R/D57E/F55L/F60I/F76Y/I96L/L162R/M171V/P40L/Q125E/R42F/V115G/Y59C); assay: biochemical; assay type: binding; details: for IC50: DRB1*0101
T1 construct: endogenous in cells; host or cells: homozygous EBV-transformed human B lymphocyte lines; immunopurified with antibody L243

DRB3 = assay: DRB3
HLA-DRB4 (DRB4*0101) = target: T2, HLA-DRB4 (DRB4*0101) (Homo sapiens, UniProt P01903+P13762, G164S); assay: biochemical; assay type: binding
T2 construct: endogenous in cells; host or cells: homozygous EBV-transformed human B lymphocyte lines; immunopurified with antibody L243

HLA-DR7 (DRB1*0701) = HLA-DR7 (DRB1*0701) (Homo sapiens, UniProt P01903+P01911, A100R/A102G/A103Q/D57E/D86V/E43K/F76Y/K127E/L162R/M171V/P40G/Q125H/Q99D/R33Q/R42Y/R54Q/S133A/S66F/T210M/V115G/Y107V/Y59L/Y89S); assay: biochemical; assay type: binding; details: read-out: binds with good affinity to DR7
HLA-DR15 (DRB1*1501) = target: T3, HLA-DR15 (DRB1*1501) (Homo sapiens, UniProt P01903+P01911); assay: biochemical; assay type: binding; details: DRB1*1501; read-out: binds with good affinity to DR15
T3 construct: endogenous in cells; host or cells: homozygous EBV-transformed human B lymphocyte lines; immunopurified with antibody L243

HLA-DRB5 (DRB5*0101) = target: T4, HLA-DRB5 (DRB5*0101) (Homo sapiens, UniProt P01903+Q30154); assay: biochemical; assay type: binding; details: read-out: binds with good affinity to DRB5
T4 construct: endogenous in cells; host or cells: homozygous EBV-transformed human B lymphocyte lines; immunopurified with antibody L243

DR4 = assay: DR4
DRB4 = assay: DRB4
Excerpt: Table printed on a drawing sheet, Figure 2
Where the first naming reader finds the target: head: DRB4

HLA-DR11 (DRB1*1101) = HLA-DR11 (DRB1*1101) (Homo sapiens, UniProt P01903+P01911, A100R/A169T/A87E/I96F/K41T/L162R/M171V/P40S/Q125H/Q178H/Q39Y/Q99D/R42S/S66Y/T262R/V115G/W38E); assay: biochemical; assay type: binding; details: read-out: binds with good affinity to DR11
Sequence of HLA-DR11 (DRB1*1101) (P01903 26-254 limits assumed, other chains not shown): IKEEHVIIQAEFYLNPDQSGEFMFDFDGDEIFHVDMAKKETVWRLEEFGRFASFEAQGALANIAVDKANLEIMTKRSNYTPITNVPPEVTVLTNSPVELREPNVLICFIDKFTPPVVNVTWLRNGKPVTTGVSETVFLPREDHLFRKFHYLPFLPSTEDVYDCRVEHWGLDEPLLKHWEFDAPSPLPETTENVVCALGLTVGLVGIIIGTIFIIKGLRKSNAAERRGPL

DRB5 = assay: DRB5
[2] = patient 067, supernatant 48 h, —: not detected
[3] = patient 078, supernatant 48 h, —: not detected
[4] = patient 093, supernatant 48 h, —: not detected
[5] = patient 659, supernatant 48 h, —: not detected
[6] = patient 815, supernatant 48 h, —: not detected
[7] = patient 630, supernatant 48 h, —: not detected
[8] = patient 862, supernatant 48 h, —: not detected
[9] = competition with biotinylated tracer HA 306-318, read-out: IC50, binding to HLA-DR1
[10] = read-out: binds with good affinity to DR1

Molecule: CC[C@H](C)[C@H](NC(=O)[C@H](Cc1ccccc1)NC(=O)[C@H](CC(=O)O)NC(=O)[C@@H](NC(=O)[C@H](C)NC(=O)[C@H](CCCCN)NC(=O)[C@H](C)N)C(C)C)C(=O)N1CCC[C@H]1C(=O)N[C@H](C(=O)N[C@@H](CCC(=O)O)C(=O)N[C@@H](CC(N)=O)C(=O)N[C@@H](CC(C)C)C(=O)N[C@@H](CCC(=O)O)C(=O)N[C@H](C(=O)N[C@H](C(=O)N[C@@H](CCSC)C(=O)N[C@@H](CCCNC(=N)N)C(=O)N[C@@H](CO)C(=O)N1CCC[C@H]1C(=O)N[C@H](C(=O)N[C@@H](Cc1ccccc1)C(=O)N[C@H](C(=O)N[C@@H](CC(=O)O)C(=O)O)[C@@H](C)O)C(C)C)[C@@H](C)O)[C@@H](C)O)C(C)C [16N 1190-1212]
- IL2 [1, 2]: — 85 pg/ml
- IL2 [1, 3]: — 17 pg/ml
- IL2 [1, 4]: 5 pg/mL
- IL2 [1, 5]: 18 pg/mL
- IL2 [1, 6]: 72 pg/mL
- IL10 [1, 6]: 123 pg/mL
- IC50 (DR1): 600 nM
- IC50 (DR15): 700 nM
- IC50 (DP401): 4110 nM
- IC50 (DP402): 1440 nM

Molecule: phytohemagglutinin [PHA]
- IFNγ [1, 2]: 2447 pg/mL
- IL2 [1, 2]: 1337 pg/mL
- IL4 [1, 2]: 632 pg/mL
- IL10 [1, 2]: 665 pg/mL
- IFNγ [1, 3]: 2249 pg/mL
- IL2 [1, 3]: 207 pg/mL
- IL4 [1, 3]: 55 pg/mL
- IL10 [1, 3]: 207 pg/mL
- IL2 ([1]; patient 093, assay at 24 h instead of 48 h): 1402* pg/ml
- IFNγ [1, 4]: 8542 pg/mL
- IL4 [1, 4]: 127 pg/mL
- IL10 [1, 4]: 8551 pg/mL
- IL2 ([1]; patient 342, supernatant 48 h, —: not detected): 125 pg/mL
- IFNγ [1, 7]: 474 pg/mL
- IL2 [1, 7]: 18874 pg/mL
- IL4 [1, 7]: 251 pg/mL
- IL10 [1, 7]: 242 pg/mL
- IFNγ [1, 5]: — 187 pg/ml
- IL2 [1, 5]: 153 — pg/ml
- IL4 [1, 5]: 453 pg/mL
- IL10 [1, 5]: 182 pg/mL
- IFNγ [1, 6]: 1979 pg/mL
- IL2 [1, 6]: 1002 pg/mL
- IL4 [1, 6]: 5638 pg/mL
- IL10 [1, 6]: 497 pg/mL
- IFNγ [1, 8]: 9902 pg/mL
- IL2 [1, 8]: 60 pg/mL
- IL4 [1, 8]: 9 pg/mL

Molecule: CC[C@H](C)[C@H](NC(=O)CNC(=O)[C@H](CC(C)C)NC(=O)[C@H](C)NC(=O)[C@@H](NC(=O)[C@H](CC(C)C)NC(=O)[C@H](CCCCN)NC(=O)[C@H](C)NC(=O)[C@H](C)N)C(C)C)C(=O)N[C@@H](CC(N)=O)C(=O)N[C@@H](C)C(=O)N[C@H](C(=O)N[C@@H](C)C(=O)N[C@@H](Cc1ccc(O)cc1)C(=O)N[C@@H](Cc1ccc(O)cc1)C(=O)N[C@@H](CCCNC(=N)N)C(=O)NCC(=O)N[C@@H](CC(C)C)C(=O)N[C@@H](CC(=O)O)C(=O)N[C@H](C(=O)N[C@@H](CO)C(=O)N[C@H](C(=O)N[C@H](C(=O)N1CCC[C@H]1C(=O)N[C@H](C(=O)N[C@@H](CO)C(=O)NCC(=O)N[C@@H](CC(=O)O)C(=O)N[C@H](C(=O)O)C(C)C)[C@@H](C)O)[C@@H](C)CC)C(C)C)C(C)C)C(C)C [24N 1404-1432]
- IC50 (DR1): 50 nM
- IC50 (DP401): 32700 nM
- IC50 (DP402): 7040 nM

Molecule: CC[C@H](C)[C@H](NC(=O)[C@@H](NC(=O)[C@@H]1CCCN1C(=O)CNC(=O)[C@@H](N)CCCCN)C(C)C)C(=O)N[C@@H](CCC(N)=O)C(=O)N[C@@H](CCSC)C(=O)N[C@@H](Cc1ccc(O)cc1)C(=O)N[C@H](C(=O)N[C@@H](CC(N)=O)C(=O)N[C@H](C(=O)N[C@@H](CC(=O)O)C(=O)N[C@@H](CCC(N)=O)C(=O)N[C@@H](CC(=O)O)C(=O)N[C@@H](CC(C)C)C(=O)N[C@H](C(=O)NCC(=O)N[C@@H](Cc1c[nH]c2ccccc12)C(=O)N1CCC[C@H]1C(=O)N[C@@H](C)C(=O)N1CCC[C@H]1C(=O)N[C@@H](CCC(N)=O)C(=O)NCC(=O)N[C@@H](CO)C(=O)N[C@@H](CCCNC(=N)N)C(=O)N[C@@H](CO)C(=O)O)C(C)C)C(C)C)[C@@H](C)O [12N 1094-1119] (H-KGPVIQMYTNVDQDLVGWPAPQGSRS-OH; N-terminus and C-terminus assumed)
- IC50 (HLA-DR1 (DRB1*0101); [9]): > 10000 nM
- affinity for HLA-DR1 (in words) (HLA-DR1 (DRB1*0101); legend of FIG. 4): low affinity
- IC50 (DR1): > 10000 nM
- IC50 (DR15): 48 nM
- IC50 (DRB3): > 10000 nM
- IC50 (DP402): 3000 nM

Molecule: CC[C@H](C)[C@H](NC(=O)[C@H](Cc1c[nH]cn1)NC(=O)[C@@H](NC(=O)[C@H](CC(C)C)NC(=O)CNC(=O)[C@@H](N)[C@@H](C)O)[C@@H](C)O)C(=O)N[C@@H](CC(=O)O)C(=O)N[C@@H](C)C(=O)N[C@@H](Cc1c[nH]cn1)C(=O)N[C@@H](Cc1ccccc1)C(=O)N[C@@H](CC(C)C)C(=O)N[C@@H](CO)C(=O)N[C@@H](CCC(N)=O)C(=O)N[C@H](C(=O)N[C@@H](CCCCN)C(=O)O)[C@@H](C)O [29N 1563-1577]
- IC50 (HLA-DR1 (DRB1*0101); [9]): 8 nM
- IC50 (HLA-DRB4 (DRB4*0101); tracer E2/E168, read-out: IC50, binding to HLA-DRB4): 40000 nM

Molecule: CC[C@H](C)[C@H](NC(=O)[C@@H]1CCCN1C(=O)[C@H](CCCNC(=N)N)NC(=O)[C@@H]1CCCN1C(=O)[C@H](CO)NC(=O)[C@H](CC(C)C)NC(=O)[C@H](CC(C)C)NC(=O)[C@H](CO)NC(=O)CNC(=O)[C@@H](N)CCCNC(=N)N)C(=O)N[C@@H](CO)C(=O)N[C@@H](Cc1ccc(O)cc1)C(=O)N[C@@H](CC(C)C)C(=O)N[C@@H](CCCCN)C(=O)NCC(=O)N[C@@H](CO)C(=O)N[C@@H](CO)C(=O)NCC(=O)NCC(=O)N1CCC[C@H]1C(=O)N[C@@H](CC(C)C)C(=O)N[C@@H](CC(C)C)C(=O)N[C@@H](C)C(=O)N1CCC[C@H]1C(=O)O [14N 1149-1172] (H-RGSLLSPRPISYLKGSSGGPLLAP-OH; N-terminus and C-terminus assumed)
- IC50 (HLA-DR1 (DRB1*0101); [10]): < 1000 nM
- IC50 (HLA-DR7 (DRB1*0701)): < 1000 nM
- IC50 (HLA-DR15 (DRB1*1501)): < 1000 nM
- IC50 (HLA-DRB4 (DRB4*0101); read-out: binds with good affinity to DRB4): < 1000 nM
- IC50 (HLA-DRB5 (DRB5*0101)): < 1000 nM
- IC50 (DR1): 8 nM
- IC50 (DR4): 9000 nM
- IC50 (DRB4): 100 nM
- IC50 (DP402): > 100000 nM

Molecule: CC[C@H](C)[C@H](NC(=O)[C@H](Cc1ccc(O)cc1)NC(=O)CNC(=O)[C@H](CCSC)NC(=O)[C@H](CC(C)C)NC(=O)[C@H](CC(=O)O)NC(=O)[C@H](C)NC(=O)[C@H](Cc1ccccc1)NC(=O)CNC(=O)[C@H](C)NC(=O)[C@@H](N)[C@@H](C)O)C(=O)N1CCC[C@H]1C(=O)N[C@@H](CC(C)C)C(=O)N[C@H](C(=O)NCC(=O)N[C@@H](C)C(=O)N1CCC[C@H]1C(=O)N[C@@H](CC(C)C)C(=O)NCC(=O)NCC(=O)N[C@@H](C)C(=O)N[C@@H](C)C(=O)N[C@@H](CCCNC(=N)N)C(=O)O)C(C)C [5C 127-149] (H-TAGFADLMGYIPLVGAPLGGAAR-OH; N-terminus and C-terminus assumed)
- IC50 (HLA-DR1 (DRB1*0101); [10]): < 1000 nM
- IC50 (HLA-DR7 (DRB1*0701)): < 1000 nM
- IC50 (HLA-DR11 (DRB1*1101)): < 1000 nM
- IC50 (HLA-DR15 (DRB1*1501)): < 1000 nM
- IC50 (HLA-DRB5 (DRB5*0101)): < 1000 nM
- IC50 (DR1): 2 nM
- IC50 (DRB3): > 100000 nM
- IC50 (DRB5): 3 nM

Molecule: tetanus toxin [TT]
- IL4 [1]: 24 pg/mL

Molecule: CC[C@H](C)[C@H](NC(=O)[C@@H](NC(=O)[C@H](CCCNC(=N)N)NC(=O)[C@@H](NC(=O)CNC(=O)[C@H](C)NC(=O)CNC(=O)[C@H](Cc1c[nH]cn1)NC(=O)[C@H](Cc1ccc(O)cc1)NC(=O)[C@@H](NC(=O)[C@@H](NC(=O)[C@H](Cc1c[nH]c2ccccc12)NC(=O)[C@H](C)NC(=O)[C@@H](NC(=O)CN)C(C)C)[C@@H](C)O)C(C)C)[C@@H](C)O)[C@@H](C)O)C(=O)N[C@@H](C)C(=O)N[C@@H](CO)C(=O)N1CCC[C@H]1C(=O)O [11N 1076-1093] (H-GVAWTVYHGAGTRTIASP-OH; N-terminus and C-terminus assumed)
- IC50 (HLA-DR1 (DRB1*0101); [10]): < 1000 nM
- IC50 (HLA-DR7 (DRB1*0701)): < 1000 nM
- IC50 (HLA-DR11 (DRB1*1101)): < 1000 nM
- IC50 (HLA-DR15 (DRB1*1501)): < 1000 nM
- IC50 (HLA-DRB5 (DRB5*0101)): < 1000 nM
- IC50 (DRB3): 6000 nM
- IC50 (DRB4): 60000 nM
- IC50 (DRB5): 100 nM
